Patent publication US20240376121A1, “COMPOUNDS AND USES THEREOF” (Foghorn Therapeutics Inc., priority 2021, published 2024)

How the values were obtained:
HiBit-BRM fusion protein = target: T1, HiBit-BRM fusion protein (Homo sapiens, UniProt P51531); test: HiBiT-BRM cell-based degradation assay (Nano-Glo HiBiT Lytic Detection); settings: stable HeLa cell line expressing HiBiT-BRM, 24 h incubation; for BRM HiBit Degradation Maximum (%): top dose 30 μM; for DC50: read-out: BRM HiBit Degradation IC50
T1 construct: expressed in transfected cells
T1 sequence (P51531 whole entry, the tested form may be a part): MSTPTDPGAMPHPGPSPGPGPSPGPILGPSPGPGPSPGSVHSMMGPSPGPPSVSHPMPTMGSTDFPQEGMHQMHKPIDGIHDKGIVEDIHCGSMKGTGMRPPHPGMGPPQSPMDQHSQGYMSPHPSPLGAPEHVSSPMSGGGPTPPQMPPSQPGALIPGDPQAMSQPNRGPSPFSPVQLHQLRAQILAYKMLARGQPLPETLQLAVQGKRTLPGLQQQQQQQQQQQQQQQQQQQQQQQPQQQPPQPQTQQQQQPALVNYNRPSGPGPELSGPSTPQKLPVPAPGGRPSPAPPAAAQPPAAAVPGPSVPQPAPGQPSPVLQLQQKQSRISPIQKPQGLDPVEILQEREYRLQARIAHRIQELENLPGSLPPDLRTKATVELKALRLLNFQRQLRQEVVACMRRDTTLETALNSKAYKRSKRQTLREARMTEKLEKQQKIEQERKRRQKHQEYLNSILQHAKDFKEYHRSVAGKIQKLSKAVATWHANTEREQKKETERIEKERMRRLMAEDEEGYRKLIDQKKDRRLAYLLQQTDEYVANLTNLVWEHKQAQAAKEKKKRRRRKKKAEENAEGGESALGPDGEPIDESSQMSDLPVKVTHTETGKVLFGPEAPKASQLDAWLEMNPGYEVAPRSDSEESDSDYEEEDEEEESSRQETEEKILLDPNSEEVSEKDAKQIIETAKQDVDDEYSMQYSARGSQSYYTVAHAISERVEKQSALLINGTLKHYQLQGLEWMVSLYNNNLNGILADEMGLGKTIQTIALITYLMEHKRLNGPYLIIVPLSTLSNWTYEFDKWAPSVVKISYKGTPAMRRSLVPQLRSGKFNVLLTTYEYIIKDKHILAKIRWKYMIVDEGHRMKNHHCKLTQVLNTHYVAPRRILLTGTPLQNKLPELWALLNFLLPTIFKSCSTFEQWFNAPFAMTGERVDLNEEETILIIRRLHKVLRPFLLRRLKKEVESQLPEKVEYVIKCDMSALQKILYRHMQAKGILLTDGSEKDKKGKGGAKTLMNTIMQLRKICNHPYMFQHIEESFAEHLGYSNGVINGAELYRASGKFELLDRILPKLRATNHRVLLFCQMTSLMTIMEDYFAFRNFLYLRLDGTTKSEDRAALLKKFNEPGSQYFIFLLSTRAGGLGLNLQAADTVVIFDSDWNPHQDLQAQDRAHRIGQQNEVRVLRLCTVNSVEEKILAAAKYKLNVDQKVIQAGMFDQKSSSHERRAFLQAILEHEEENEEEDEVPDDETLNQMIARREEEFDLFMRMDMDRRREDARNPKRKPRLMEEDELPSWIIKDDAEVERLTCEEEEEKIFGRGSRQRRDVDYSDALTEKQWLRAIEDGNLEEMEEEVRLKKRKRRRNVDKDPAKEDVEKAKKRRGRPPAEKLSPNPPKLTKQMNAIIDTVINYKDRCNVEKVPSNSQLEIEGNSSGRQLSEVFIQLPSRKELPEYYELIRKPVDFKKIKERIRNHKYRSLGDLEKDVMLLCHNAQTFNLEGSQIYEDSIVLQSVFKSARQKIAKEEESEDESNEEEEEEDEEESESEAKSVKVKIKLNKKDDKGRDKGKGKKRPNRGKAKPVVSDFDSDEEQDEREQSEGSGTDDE
Description: (§1) Procedure: A stable HeLa cell line expressing HiBiT-BRM was generated. On day 0, 5000 cells were seeded in 40 μL of media into each well of 384-well cell culture plates. On day 1, cells were treated with 120 nL DMSO or 120 nL of 3-fold serially DMSO-diluted compounds (10 points in duplicate with 30 μM as final top dose). Subsequently plates were incubated for 24 h in a standard tissue culture incubator and equilibrated at room temperature for 15 minutes. Nano-Glo HiBiT Lytic Detection System (Promega N3050) reagent was freshly prepared and 20 ul was added to each well. Upon addition of this LgBit-containing reagent, the HiBiT and LgBiT proteins associate to form the luminescent NanoBiT luciferase. The plates were shaken for 10 minutes at room temperature and the bioluminescence read using an EnVision plate reader (PerkinElmer).
(§2) The degradation % was calculated using the following formula: % degradation=100%−100%×(LumSample−LumLC)/(LumHC−LumLC). DMSO treated cells are employed as High Control (HC) and 2 μM of a known BRM/BRG1 degrader standard treated cells are employed as Low Control (LC).

[1] = target: T2, HiBit-BRG1 fusion protein (Homo sapiens, UniProt P51532); test: HiBiT-BRG1 cell-based degradation assay (Nano-Glo HiBiT Lytic Detection); settings: stable HeLa cell line expressing HiBit-BRG1 and LgBit, 24 h incubation; for Dmax: top dose 30 μM, read-out: BRG1 HiBit Degradation Maximum (%); for DC50: read-out: BRMG1 HiBit Degradation IC50
T2 construct: expressed in transfected cells
T2 sequence (P51532 whole entry, the tested form may be a part): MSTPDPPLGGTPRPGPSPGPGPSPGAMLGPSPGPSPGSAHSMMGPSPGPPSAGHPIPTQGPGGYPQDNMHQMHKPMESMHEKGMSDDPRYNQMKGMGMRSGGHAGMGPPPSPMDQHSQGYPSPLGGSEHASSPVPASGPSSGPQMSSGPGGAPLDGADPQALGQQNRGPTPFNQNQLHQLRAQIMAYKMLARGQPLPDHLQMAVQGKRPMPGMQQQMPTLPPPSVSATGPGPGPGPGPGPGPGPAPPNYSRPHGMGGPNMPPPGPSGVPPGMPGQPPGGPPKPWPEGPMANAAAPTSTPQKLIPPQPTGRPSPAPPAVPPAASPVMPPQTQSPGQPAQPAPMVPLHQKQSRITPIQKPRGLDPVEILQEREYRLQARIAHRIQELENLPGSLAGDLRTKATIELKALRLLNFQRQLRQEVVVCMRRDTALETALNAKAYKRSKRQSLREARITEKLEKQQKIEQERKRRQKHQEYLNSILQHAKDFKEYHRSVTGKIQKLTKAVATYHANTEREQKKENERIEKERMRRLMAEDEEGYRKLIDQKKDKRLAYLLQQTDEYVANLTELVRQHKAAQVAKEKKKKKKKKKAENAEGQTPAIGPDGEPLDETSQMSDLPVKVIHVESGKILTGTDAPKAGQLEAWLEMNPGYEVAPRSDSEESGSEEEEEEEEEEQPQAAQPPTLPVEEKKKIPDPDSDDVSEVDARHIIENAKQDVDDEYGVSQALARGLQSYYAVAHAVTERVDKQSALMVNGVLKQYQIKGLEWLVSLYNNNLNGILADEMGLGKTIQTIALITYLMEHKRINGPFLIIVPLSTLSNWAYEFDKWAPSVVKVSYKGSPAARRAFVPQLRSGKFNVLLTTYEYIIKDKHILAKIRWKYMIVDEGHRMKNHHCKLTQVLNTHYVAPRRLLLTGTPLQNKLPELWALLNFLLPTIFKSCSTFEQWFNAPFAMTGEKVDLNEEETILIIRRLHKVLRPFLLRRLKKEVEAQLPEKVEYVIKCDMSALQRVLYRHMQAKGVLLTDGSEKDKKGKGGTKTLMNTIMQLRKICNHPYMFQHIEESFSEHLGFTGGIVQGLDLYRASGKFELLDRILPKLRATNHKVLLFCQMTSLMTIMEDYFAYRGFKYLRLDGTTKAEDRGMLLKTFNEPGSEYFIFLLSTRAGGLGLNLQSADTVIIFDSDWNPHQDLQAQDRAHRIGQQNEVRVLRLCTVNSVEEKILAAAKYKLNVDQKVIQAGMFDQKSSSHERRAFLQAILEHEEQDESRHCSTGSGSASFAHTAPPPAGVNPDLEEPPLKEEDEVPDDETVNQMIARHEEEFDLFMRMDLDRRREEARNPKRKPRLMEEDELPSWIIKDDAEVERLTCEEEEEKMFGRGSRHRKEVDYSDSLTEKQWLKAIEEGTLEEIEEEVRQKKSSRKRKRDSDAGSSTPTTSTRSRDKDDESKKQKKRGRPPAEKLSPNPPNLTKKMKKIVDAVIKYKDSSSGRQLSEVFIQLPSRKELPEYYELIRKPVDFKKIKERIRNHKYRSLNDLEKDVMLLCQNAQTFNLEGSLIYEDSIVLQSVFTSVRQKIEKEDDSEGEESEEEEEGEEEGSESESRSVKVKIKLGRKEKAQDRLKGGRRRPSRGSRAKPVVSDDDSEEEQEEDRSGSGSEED
Description: as §1
For measurement of BRG1 degradation, a stable HeLa cell line expressing HiBit-BRG1 and LgBit was generated. The same protocol as above was then followed.
as §2

DC50 (HiBit-BRM fusion protein) | Dmax [1] | DC50 [1] | Compound | BRM HiBit Degradation Maximum (%) (HiBit-BRM fusion protein)
< 10 nM | < 50% | ≥ 1000 nM | Cc1ncsc1-c1ccc([C@H](C)NC(=O)[C@@H]2C[C@@H](O)CN2C(=O)[C@@H](c2cc([C@H]3CC[C@@H](N4CCC(c5sc6nnc(-c7ccccc7O)cc6c5C)CC4)CC3)no2)C(C)C)cc1 [Compound 37, (2S,4R)-4-hydroxy-1-((R)-2-(3-((1s,4S)-4-(4-(3-(2-hydroxyphenyl)-5-methylthieno[2,3-c]pyridazin-6-yl)piperidin-1-yl)cyclohexyl)isoxazol-5-yl)-3-methylbutanoyl)-N-((S)-1-(4-(4-methylthiazol-5-yl)phenyl)ethyl)pyrrolidine-2-carboxamide] | A (“A” indicates maximum degradation ≥ 75%)
≥ 100 nM | < 50% | ≥ 1000 nM | Cc1ncsc1-c1ccc([C@H](C)NC(=O)[C@@H]2C[C@@H](O)CN2C(=O)[C@@H](c2cc([C@H]3CC[C@H](N4CCC(c5sc6nnc(-c7ccccc7O)cc6c5C)CC4)CC3)no2)C(C)C)cc1 [Compound 38, (2S,4R)-4-hydroxy-1-((R)-2-(3-((1r,4R)-4-(4-(3-(2-hydroxyphenyl)-5-methylthieno[2,3-c]pyridazin-6-yl)piperidin-1-yl)cyclohexyl)isoxazol-5-yl)-3-methylbutanoyl)-N-((S)-1-(4-(4-methylthiazol-5-yl)phenyl)ethyl)pyrrolidine-2-carboxamide] | A (“A” indicates maximum degradation ≥ 75%)
≥ 1000 nM | < 50% | ≥ 1000 nM | Cc1ncsc1-c1ccc([C@H](C)NC(=O)[C@@H]2C[C@@H](O)CN2C(=O)[C@@H](c2cc(OCCN[C@H]3CCc4sc5nnc(-c6ccccc6O)cc5c4C3)no2)C(C)C)cc1 [Compound 39, (2S,4R)-4-hydroxy-1-((R)-2-(3-(2-(((S)-3-(2-hydroxyphenyl)-5,6,7,8-tetrahydrobenzo[4,5]thieno[2,3-c]pyridazin-6-yl)amino)ethoxy)isoxazol-5-yl)-3-methylbutanoyl)-N—((S)-1-(4-(4-methylthiazol-5-yl)phenyl)ethyl)pyrrolidine-2-carboxamide] | C (“C” indicates maximum degradation < 50%)
≥ 1000 nM | < 50% | ≥ 1000 nM | Cc1ncsc1-c1ccc([C@H](C)NC(=O)[C@@H]2C[C@@H](O)CN2C(=O)[C@@H](c2cc(OCCN[C@@H]3CCc4sc5nnc(-c6ccccc6O)cc5c4C3)no2)C(C)C)cc1 [Compound 40, (2S,4R)-4-hydroxy-1-((R)-2-(3-(2-(((R)-3-(2-hydroxyphenyl)-5,6,7,8-tetrahydrobenzo[4,5]thieno[2,3-c]pyridazin-6-yl)amino)ethoxy)isoxazol-5-yl)-3-methylbutanoyl)-N—((S)-1-(4-(4-methylthiazol-5-yl)phenyl)ethyl)pyrrolidine-2-carboxamide] | C (“C” indicates maximum degradation < 50%)
≥ 10 nM | ≥ 50% | ≥ 100 nM | Cc1ncsc1-c1ccc([C@H](C)NC(=O)[C@@H]2C[C@@H](O)CN2C(=O)[C@@H](c2cc(N3C[C@H]4C[C@@H]3CN4C(=O)[C@H]3CCc4sc5nnc(-c6ccccc6O)cc5c4C3)no2)C(C)C)cc1 [Compound 41, (2S,4R)-4-hydroxy-1-((R)-2-(3-((1R,4R)-5-((S)-3-(2-hydroxyphenyl)-5,6,7,8-tetrahydrobenzo[4,5]thieno[2,3-c]pyridazine-6-carbonyl)-2,5-diazabicyclo[2.2.1]heptan-2-yl)isoxazol-5-yl)-3-methylbutanoyl)-N—((S)-1-(4-(4-methylthiazol-5-yl)phenyl)ethyl)pyrrolidine-2-carboxamide] | A (“A” indicates maximum degradation ≥ 75%)
≥ 100 nM | < 50% | ≥ 1000 nM | Cc1ncsc1-c1ccc([C@H](C)NC(=O)[C@@H]2C[C@@H](O)CN2C(=O)[C@@H](c2cc(N3C[C@H]4C[C@@H]3CN4C(=O)[C@@H]3CCc4sc5nnc(-c6ccccc6O)cc5c4C3)no2)C(C)C)cc1 [Compound 42, (2S,4R)-4-hydroxy-1-((R)-2-(3-((1R,4R)-5-((R)-3-(2-hydroxyphenyl)-5,6,7,8-tetrahydrobenzo[4,5]thieno[2,3-c]pyridazine-6-carbonyl)-2,5-diazabicyclo[2.2.1]heptan-2-yl)isoxazol-5-yl)-3-methylbutanoyl)-N—((S)-1-(4-(4-methylthiazol-5-yl)phenyl)ethyl)pyrrolidine-2-carboxamide] | A (“A” indicates maximum degradation ≥ 75%)
≥ 1000 nM | < 50% | ≥ 1000 nM | Cc1ncsc1-c1ccc([C@H](C)NC(=O)[C@@H]2C[C@@H](O)CN2C(=O)[C@@H](c2cc(N3C[C@@H]4C[C@H]3CN4C(=O)[C@H]3CCc4sc5nnc(-c6ccccc6O)cc5c4C3)no2)C(C)C)cc1 [Compound 43, (2S,4R)-4-hydroxy-1-((R)-2-(3-((1S,4S)-5-((S)-3-(2-hydroxyphenyl)-5,6,7,8-tetrahydrobenzo[4,5]thieno[2,3-c]pyridazine-6-carbonyl)-2,5-diazabicyclo[2.2.1]heptan-2-yl)isoxazol-5-yl)-3-methylbutanoyl)-N-((S)-1-(4-(4-methylthiazol-5-yl)phenyl)ethyl)pyrrolidine-2-carboxamide] | C (“C” indicates maximum degradation < 50%)
≥ 100 nM | < 50% | ≥ 1000 nM | Cc1ncsc1-c1ccc([C@H](C)NC(=O)[C@@H]2C[C@@H](O)CN2C(=O)[C@@H](c2cc(N3C[C@@H]4C[C@H]3CN4C(=O)[C@@H]3CCc4sc5nnc(-c6ccccc6O)cc5c4C3)no2)C(C)C)cc1 [Compound 44, (2S,4R)-4-hydroxy-1-((R)-2-(3-((1S,4S)-5-((R)-3-(2-hydroxyphenyl)-5,6,7,8-tetrahydrobenzo[4,5]thieno[2,3-c]pyridazine-6-carbonyl)-2,5-diazabicyclo[2.2.1]heptan-2-yl)isoxazol-5-yl)-3-methylbutanoyl)-N-((S)-1-(4-(4-methylthiazol-5-yl)phenyl)ethyl)pyrrolidine-2-carboxamide] | B (“B” indicates maximum degradation ≥ 50%)
≥ 100 nM | < 50% | ≥ 1000 nM | Cc1ncsc1-c1ccc([C@H](C)NC(=O)[C@@H]2C[C@@H](O)CN2C(=O)[C@@H](c2cc(OCCNC(=O)[C@H]3CCc4sc5nnc(-c6ccccc6O)cc5c4C3)no2)C(C)C)cc1 [Compound 45, (S)-N-(2-((5-((R)-1-((2S,4R)-4-hydroxy-2-(((S)-1-(4-(4-methylthiazol-5-yl)phenyl)ethyl)carbamoyl)pyrrolidin-1-yl)-3-methyl-1-oxobutan-2-yl)isoxazol-3-yl)oxy)ethyl)-3-(2-hydroxyphenyl)-5,6,7,8-tetrahydrobenzo[4,5]thieno[2,3-c]pyridazine-6-carboxamide] | B (“B” indicates maximum degradation ≥ 50%)
≥ 1000 nM | < 50% | ≥ 1000 nM | Cc1ncsc1-c1ccc([C@H](C)NC(=O)[C@@H]2C[C@@H](O)CN2C(=O)[C@@H](c2cc(OCCNC(=O)[C@@H]3CCc4sc5nnc(-c6ccccc6O)cc5c4C3)no2)C(C)C)cc1 [Compound 46, (R)-N-(2-((5-((R)-1-((2S,4R)-4-hydroxy-2-(((S)-1-(4-(4-methylthiazol-5-yl)phenyl)ethyl)carbamoyl)pyrrolidin-1-yl)-3-methyl-1-oxobutan-2-yl)isoxazol-3-yl)oxy)ethyl)-3-(2-hydroxyphenyl)-5,6,7,8-tetrahydrobenzo[4,5]thieno[2,3-c]pyridazine-6-carboxamide] | C (“C” indicates maximum degradation < 50%)
≥ 100 nM | < 50% | ≥ 1000 nM | Cc1ncsc1-c1ccc([C@H](C)NC(=O)[C@@H]2C[C@@H](O)CN2C(=O)[C@@H](c2cc(C3CCN(C(=O)[C@H]4CCc5sc6nnc(-c7ccccc7O)cc6c5C4)CC3)no2)C(C)C)cc1 [Compound 47, (2S,4R)-4-hydroxy-1-((R)-2-(3-(1-((S)-3-(2-hydroxyphenyl)-5,6,7,8-tetrahydrobenzo[4,5]thieno[2,3-c]pyridazine-6-carbonyl)piperidin-4-yl)isoxazol-5-yl)-3-methylbutanoyl)-N-((S)-1-(4-(4-methylthiazol-5-yl)phenyl)ethyl)pyrrolidine-2-carboxamide] | A (“A” indicates maximum degradation ≥ 75%)
≥ 1000 nM | < 50% | ≥ 1000 nM | Cc1ncsc1-c1ccc([C@H](C)NC(=O)[C@@H]2C[C@@H](O)CN2C(=O)[C@@H](c2cc(C3CCN(C(=O)[C@@H]4CCc5sc6nnc(-c7ccccc7O)cc6c5C4)CC3)no2)C(C)C)cc1 [Compound 48, (2S,4R)-4-hydroxy-1-((R)-2-(3-(1-((R)-3-(2-hydroxyphenyl)-5,6,7,8-tetrahydrobenzo[4,5]thieno[2,3-c]pyridazine-6-carbonyl)piperidin-4-yl)isoxazol-5-yl)-3-methylbutanoyl)-N-((S)-1-(4-(4-methylthiazol-5-yl)phenyl)ethyl)pyrrolidine-2-carboxamide] | C (“C” indicates maximum degradation < 50%)
